From patent US6780978B2, “Fluorescence-activating antisera and IgG fraction therefrom” (Hamamatsu Photonics, K.K., priority 1998, dated 2004)

Key:
[1] = Absorbance of Malachite Green dilutions in PBS at 617 nm; assay type: physicochemical; conditions: 1 cm path
Experimental: Malachite Green is dissolved in a phosphate-buffered saline (hereinafter referred to as “PBS”) to prepare a series of dilutions in the concentration range of 4-4,000 nM.
Absorbance at a wavelength of 617 nm in these dilutions is measured with a Hitachi Model 557 two wavelength spectrophotometer using a quartz cell with a 1 cm optical path length and PBS as the reference (See Table 1), and a concentration—absorbance curve is prepared (See FIG. 6).

[2] = test system: IgG fraction derived from Guinea-pig 1; assay: Fluorescence of Malachite Green dilutions mixed with the IgG fraction; assay type: binding; conditions: IgG fraction 0.2 μM, excitation 617 nm
Experimental: A series of dilutions of Malachite Green in PBS solutions are prepared by adding to the solutions, the IgG fraction according to the invention which has been derived from Guinea-pig 1 in certain amounts (with the final concentration being 0.2 μM), and by adjusting concentrations of the dye within the range of 0-12 nM.
Fluorescence of these dilutions is measured with a Hitachi Model 850 fluorescence spectrophotometer under the following conditions: in a quartz cell of optical path length of 1.0 cm at the excitation side; an excitation wavelength of 617 nm; an emission wavelength of 650 nm; a band-pass width of 5 nm at both excitation and emission sides; High gain of a photomultiplier; a time constant of 1.5 sec; and a fluorescence integration time of 30 sec. Thus, a concentration-fluorescence intensity curve is prepared (See FIG. 5).
The fluorescence intensity is expressed as output values (i.e., arbitrary, relative units) of the fluorescence spectrophotometer.

anti-MG-KLH IgG [3] = assay: Absorption spectra of dye mixed with IgG fraction; assay type: binding, guinea-pig
Experimental: Concentrations of the aforementioned IgG fraction and MG solution were adjusted by dilution such that the protein concentration as described above and MG concentration would finally be 2 μM and 4 μM, respectively. Further, employing γ globulin of a guinea-pig as the control against anti-MG-KLH IgG (i.e., blank IgG), the absorption spectrum of a mixture of the IgG fraction and the MG solution was measured (See FIG. 3).

anti-MG-KLH IgG [4] = assay: Differential fluorescence spectra of dye mixed with IgG fraction; assay type: binding, guinea-pig; conditions: for fluorescent ability upon mixing with anti-MG-KLH IgG: differential spectrum versus blank IgG
Excerpt: Since the differential spectra can remove problematic noises in the fluorescence analysis such as the fluorescence of a cell itself and Raman scattering of a solvent, it becomes possible to obtain the fluorescence spectrum purely pertaining to a sample.

| Compound | Absorbance (617 nm) ([1]; 4 nM in PBS) | Absorbance (617 nm) ([1]; 12 nM in PBS) | Absorbance (617 nm) ([1]; 40 nM in PBS) | Absorbance (617 nm) ([1]; 120 nM in PBS) | Absorbance (617 nm) ([1]; 400 nM in PBS) | Absorbance (617 nm) ([1]; 1200 nM in PBS) | Absorbance (617 nm) ([1]; 4000 nM in PBS) | Fluorescence intensity (650 nm) ([2]; 0.04 nM dye) | Fluorescence intensity (650 nm) ([2]; 0.12 nM dye) | Fluorescence intensity (650 nm) ([2]; 0.4 nM dye) | Fluorescence intensity (650 nm) ([2]; 1.2 nM dye) | Fluorescence intensity (650 nm) ([2]; 4 nM dye) | Fluorescence intensity (650 nm) ([2]; 12 nM dye) | shift of wavelength of absorption maximum to longer wavelength relative to dye alone (anti-MG-KLH IgG [3]; IgG 2 μM, MG 4 μM) | increase of fluorescence quantum yield (anti-MG-KLH IgG [4]; by the treatment according to the invention) | fluorescent ability upon mixing with anti-MG-KLH IgG (anti-MG-KLH IgG [4]) | change of absorption intensity in anti-MG-KLH IgG mixed solution (anti-MG-KLH IgG [3]) | shift of absorption spectrum in anti-MG-KLH IgG mixed solution (anti-MG-KLH IgG [3]) |
| --- | --- | --- | --- | --- | --- | --- | --- | --- | --- | --- | --- | --- | --- | --- | --- | --- | --- | --- |
| CN(C)c1ccc(C(=C2C=CC(=[N+](C)C)C=C2)c2ccccc2)cc1 [Malachite Green] | 0 | 0 | 0.002 | 0.009 | 0.036 | 0.132 | 0.464 | 0.026 arbitrary, relative units | 0.034 arbitrary, relative units | 0.066 arbitrary, relative units | 0.18 arbitrary, relative units | 0.487 arbitrary, relative units | 1.22 arbitrary, relative units | 6-7 nm | over 1,000 times | fluorescent | – | – |
| CN(C)c1ccc(C(=N)c2ccc(N(C)C)cc2)cc1.Cl [Auramine O] | – | – | – | – | – | – | – | – | – | – | – | – | – | – | – | manifests its fluorescent ability | decline in the absorption intensity | shift toward longer wavelengths |
